Source: ChEMBL document CHEMBL5380778, “Structure-Directed Discovery of Potent Soluble Epoxide Hydrolase Inhibitors for the Treatment of Inflammatory Diseases” (J Med Chem, 2023)

Experiments:
[1] = biological target: T1, Bifunctional epoxide hydrolase 2 (Homo sapiens, UniProt P34913); experiment: Inhibition of recombinant human soluble epoxide hydrolase using PHOME as substrate assessed as 6-methoxynaphthaldehyde product formation preincubated with compound for 10 mins followed by substrate addition and measured by fluorescence based analysis
T1 sequence (P34913 whole entry): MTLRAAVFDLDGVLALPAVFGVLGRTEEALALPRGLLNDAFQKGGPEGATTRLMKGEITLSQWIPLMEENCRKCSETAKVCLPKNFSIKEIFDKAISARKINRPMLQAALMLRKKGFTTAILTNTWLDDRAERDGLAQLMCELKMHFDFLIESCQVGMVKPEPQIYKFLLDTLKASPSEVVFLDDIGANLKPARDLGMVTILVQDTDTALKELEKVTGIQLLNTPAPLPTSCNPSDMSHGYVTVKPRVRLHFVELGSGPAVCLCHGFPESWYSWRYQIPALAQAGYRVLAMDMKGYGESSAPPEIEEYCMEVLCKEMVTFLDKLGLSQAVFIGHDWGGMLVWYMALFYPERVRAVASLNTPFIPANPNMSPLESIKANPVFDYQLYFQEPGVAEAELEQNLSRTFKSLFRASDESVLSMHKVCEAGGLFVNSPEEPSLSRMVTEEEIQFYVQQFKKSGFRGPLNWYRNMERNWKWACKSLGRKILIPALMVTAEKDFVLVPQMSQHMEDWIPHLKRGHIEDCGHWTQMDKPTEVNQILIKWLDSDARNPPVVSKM

[2] = biological target: T2, Bifunctional epoxide hydrolase 2 (Mus musculus, UniProt P34914); experiment: Inhibition of recombinant mouse soluble epoxide hydrolase using PHOME as substrate assessed as 6-methoxynaphthaldehyde product formation preincubated with compound for 10 mins followed by substrate addition and measured by fluorescence based analysis
T2 sequence (P34914 whole entry): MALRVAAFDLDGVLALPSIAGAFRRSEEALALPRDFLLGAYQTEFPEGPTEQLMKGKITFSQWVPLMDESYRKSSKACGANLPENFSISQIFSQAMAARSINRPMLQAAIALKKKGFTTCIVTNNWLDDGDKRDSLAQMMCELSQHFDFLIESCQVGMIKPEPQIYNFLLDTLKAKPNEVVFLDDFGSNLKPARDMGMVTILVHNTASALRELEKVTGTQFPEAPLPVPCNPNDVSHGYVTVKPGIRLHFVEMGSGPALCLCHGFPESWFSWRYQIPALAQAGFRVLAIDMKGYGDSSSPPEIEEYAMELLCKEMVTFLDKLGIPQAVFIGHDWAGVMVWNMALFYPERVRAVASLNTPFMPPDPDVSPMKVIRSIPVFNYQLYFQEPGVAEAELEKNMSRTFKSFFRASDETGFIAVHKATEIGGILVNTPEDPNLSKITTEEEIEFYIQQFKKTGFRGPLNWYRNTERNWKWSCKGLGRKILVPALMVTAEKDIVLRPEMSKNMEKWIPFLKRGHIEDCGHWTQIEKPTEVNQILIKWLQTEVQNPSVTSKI

Row | Compound | IC50 [1] [nM] | IC50 [2] [nM]
1 | C[C@]12C[C@@H]3C[C@](C)(C1)C[C@@](NC(=O)Nc1ccc(C(=O)NC4CCC(C(=O)N5CCC(CCO)CC5)CC4)cc1F)(C3)C2 (some centres undefined) | 16 | 0.53
2 | CCN(CC)CCN1CCC(CC(=O)N2CCCN(Cc3ccc(NC(=O)N[C@@]45C[C@@H]6C[C@@](C)(C[C@@](C)(C6)C4)C5)c(F)c3)CC2)CC1 | 2.1 | 1.37
3 | C=C(C)C(=O)N1CCCN(C(=O)C2CCCN(Cc3ccc(NC(=O)N[C@@]45C[C@@H]6C[C@@](C)(C[C@@](C)(C6)C4)C5)c(F)c3)C2)CC1 (some centres undefined) | 0.9 | 1.3
4 | C[C@]12C[C@@H]3C[C@](C)(C1)C[C@@](NC(=O)Nc1ccc(CN4CCCC(C(=O)N5CCN(CCO)CC5)C4)cc1F)(C3)C2 (some centres undefined) | 0.98 | 0.55
5 | CCC(C)C(=O)N1CCCN(C(=O)C2CCCN(Cc3ccc(NC(=O)N[C@@]45C[C@@H]6C[C@@](C)(C[C@@](C)(C6)C4)C5)c(F)c3)C2)CC1 (some centres undefined) | 0.25 | 0.62
6 | C[C@]12C[C@@H]3C[C@](C)(C1)C[C@@](NC(=O)Nc1ccc(CN4CCCC(C(=O)NC(CO)CO)C4)cc1F)(C3)C2 (some centres undefined) | 0.28 | 0.35
7 | C[C@]12C[C@@H]3C[C@](C)(C1)C[C@@](NC(=O)Nc1ccc(CN4CCCC(C(=O)O)C4)cc1F)(C3)C2 (some centres undefined) | 2.3 | 0.61
8 | C[C@]12C[C@@H]3C[C@](C)(C1)C[C@@](NC(=O)Nc1ccc(C(=O)NC4CCC(C(=O)N(CCO)CCO)CC4)cc1F)(C3)C2 (some centres undefined) | 2.94 | 0.23
9 | CC(O)CNC(=O)C1CCN(Cc2ccc(NC(=O)N[C@@]34C[C@@H]5C[C@@](C)(C[C@@](C)(C5)C3)C4)c(F)c2)CC1 (some centres undefined) | 6 | 0.47
10 | C[C@]12C[C@@H]3C[C@](C)(C1)C[C@@](NC(=O)Nc1ccc(CN4CCC(C(=O)NC(CO)(CO)CO)CC4)cc1F)(C3)C2 | 6.51 | 0.12
11 | C[C@]12C[C@@H]3C[C@](C)(C1)C[C@@](NC(=O)Nc1ccc(CN4CCC(C(=O)N(CCO)CCO)CC4)cc1F)(C3)C2 | 6.72 | 0.55
12 | CCN(CC)C(=O)C1CCCN(Cc2ccc(NC(=O)N[C@@]34C[C@@H]5C[C@@](C)(C[C@@](C)(C5)C3)C4)c(F)c2)C1 (some centres undefined) | 0.35 | 0.56
13 | CCC(=O)N1CCCN(C(=O)C2CCCN(C(=O)c3ccc(NC(=O)N[C@@]45C[C@@H]6C[C@@](C)(C[C@@](C)(C6)C4)C5)c(F)c3)C2)CC1 (some centres undefined) | 0.56 | 0.58
14 | C[C@]12C[C@@H]3C[C@](C)(C1)C[C@@](NC(=O)Nc1ccc(CN4CCCC(C(=O)N(CCO)CCO)C4)cc1F)(C3)C2 (some centres undefined) | 0.28 | 0.29
15 | CC(O)CNC(=O)C1CCN(C(=O)c2ccc(NC(=O)N[C@@]34C[C@@H]5C[C@@](C)(C[C@@](C)(C5)C3)C4)c(F)c2)CC1 (some centres undefined) | 4.5 | 0.18
16 | C[C@]12C[C@@H]3C[C@](C)(C1)C[C@@](NC(=O)Nc1ccc(C(=O)NC4CCC(C(=O)NCCO)CC4)cc1F)(C3)C2 (some centres undefined) | 0.8 | 0.18
17 | C[C@]12C[C@@H]3C[C@](C)(C1)C[C@@](NC(=O)Nc1ccc(C(=O)NC4CCC(C(N)=O)CC4)cc1F)(C3)C2 (some centres undefined) | 0.84 | 0.35
18 | C[C@]12C[C@@H]3C[C@](C)(C1)C[C@@](NC(=O)Nc1ccc(C(=O)N4CCCC(C(=O)O)C4)cc1F)(C3)C2 (some centres undefined) | 4.6 | 1.3
19 | CC(C)(C)OC(=O)N1CCN(CCNC(=O)C2CCC(NC(=O)c3ccc(NC(=O)N[C@@]45C[C@@H]6C[C@@](C)(C[C@@](C)(C6)C4)C5)c(F)c3)CC2)CC1 (some centres undefined) | 183 | 2
20 | CC(=O)N1CCC(CC(=O)N2CCCN(Cc3ccc(NC(=O)N[C@@]45C[C@@H]6C[C@@](C)(C[C@@](C)(C6)C4)C5)c(F)c3)CC2)CC1 | 0.49 | 0.11
21 | CC(O)CNC(=O)C1CCCN(C(=O)c2ccc(NC(=O)N[C@]34C[C@@H]5C[C@@](C)(C[C@@](C)(C5)C3)C4)c(F)c2)C1 (some centres undefined) | 0.28 | 0.23
22 | CCN(CC)C(=O)C1CCCN(C(=O)c2ccc(NC(=O)N[C@]34C[C@@H]5C[C@@](C)(C[C@@](C)(C5)C3)C4)c(F)c2)C1 (some centres undefined) | 0.35 | 0.38
